Assay results published in patent US20220249597A1, “MIF INHIBITORS AND METHODS OF USE THEREOF” (The Johns Hopkins University, priority 2016, published 2022).
{Biotin} = biotin label

Legend:
MIF [1] = target: T1, MIF (Homo sapiens, UniProt P14174); experiment: MIF nuclease assay with small DNA substrates; assay type: biochemical; set-up: GST (N, cleaved yes); made in house; host or cells: Escherichia coli; key to Endo-Nuclease Activity / Exo-Nuclease Activity: Y:yes; N:no; conditions: for Endo-Nuclease Activity / Exo-Nuclease Activity: MIF on the listed DNA substrate; for MIF cleavage of DNA substrate: single or double stranded substrates, ds substrates MIF 1-4 μM
T1 sequence (P14174 2-115 limits assumed): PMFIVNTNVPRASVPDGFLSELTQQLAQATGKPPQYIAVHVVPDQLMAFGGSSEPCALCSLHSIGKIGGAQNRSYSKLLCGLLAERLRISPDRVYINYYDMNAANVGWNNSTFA
Text: (§1) Human endoG (NM_004435), cyclophilin A (NM_021130), mouse AIF (NM_012019), human MIF (NM_002415) cDNA and their variants were subcloned into glutathione S-transferase (GST)-tagged pGex-6P-1 vector (GE Healthcare) by EcoRI and XhoI restriction sites and verified by sequencing. The protein was expressed and purified from Escherichia coli by glutathione Sepharose. The GST tag was subsequently proteolytically removed for the nuclease assay. MIF point mutants were constructed by polymerase chain reaction (PCR) and verified by sequencing. The purity of MIF proteins that were used in the nuclease assays was further confirmed by mass spectrometry. MIF proteins purified by FPLC were also used in the nuclease assays and no obvious difference was observed between FPLC MIF and non-FPLC MIF proteins. GST protein was used as a negative control in the nuclease assay.

MIF [2] = target: T1, MIF; experiment: Electrophoretic mobility shift assay (EMSA) of MIF with biotin-labeled DNA substrates; assay type: binding; set-up: GST (N, cleaved yes); made in house; host or cells: Escherichia coli; conditions: 5′ biotin labeled single stranded substrates, 10 mM Mg2+
Protocol: EMSA assay was performed using LightShift Chemiluminescent EMSA kit (Thermo Scientific) following the manufactures instruction. Briefly, purified MIF protein (2 μM) was incubated with biotin-labeled DNA substrates (10 nM) in the binding buffer containing 10 mM MgCl2 for 30 min on ice. Then samples were separated on 6% retardation polyacrylamide followed by electrophoretic transfer to nylon membrane.
as §1

MIF [3] = target: T1, MIF; conditions: Mg2+ 10 mM with EDTA 50 mM or Ca2+ 2 mM with EDTA 25 mM
Protocol: (A) In vitro MIF nuclease assay using pcDNA as substrate. […] (C) Pulse-field gel electrophoresis assay of MNNG-induced DNA damage in MIF deficient HeLa cells and wild type HeLa cells treated with or without DPQ (30 μM) or ISO-1 (100 μM).
The reaction was terminated with loading buffer containing 10 mM EDTA and incubation on ice. […] Small DNA substrates were separated on 15% or 25% TBE-urea polyacrylamide (PAGE) gel or 20% TBE PAGE gel. Then gel was stained with 0.5 μg/ml Ethidium Bromide (EtBr) followed by electrophoretic transfer to nylon membrane. Then, Biotin-labeled DNA is further detected by chemiluminescence using Chemiluminescent Nucleic Acid Detection Module (Thermo Scientific).

HeLa cells = experiment: Pulse-field gel electrophoresis assay of MNNG-induced DNA damage in HeLa cells; assay type: cell-based, human; conditions: DPQ 30 μM; ISO-1 100 μM
Text: FIGS. 2A-2D. FIG. 2. MIF is a novel nuclease that cleaves genomic DNA.

Molecule | Endo-Nuclease Activity (MIF [1]) | Exo-Nuclease Activity (MIF [1]) | MIF binding to ssDNA substrate (DNA/MIF complex formation) (MIF [2]) | Effect on MIF nuclease activity against human genomic DNA (MIF [3]) | Effect on MNNG induced DNA damage / DNA cleavage (HeLa cells) | MIF cleavage of DNA substrate (MIF [1])
3F1: 5′ biotin ssDNA MIF substrate, SEQ ID NO: 12 (DNA AAAAAAAAAACAAGTAGCTGGGATTACAGG; DNA, 5' {Biotin}, backbone and methylation of C not given here) | Y | Y | clearly binds |  |  | 
O=C(O)CN(CCN(CC(=O)O)CC(=O)O)CC(=O)O [EDTA] |  |  |  | blocks MIF's nuclease activity |  | 
COC(=O)CC1CC(c2ccc(O)cc2)=NO1 (stereo not drawn) [ISO-1] |  |  |  |  | fails to prevent MNNG induced DNA damage | 
BS2: 5′ biotin ssDNA MIF substrate, SEQ ID NO: 96 (DNA TGGGATTACAGGCGTGAGCCACCACGCCC; DNA, 5' {Biotin}, backbone and methylation of C not given here) | Y | Y |  |  |  | 
L3: 5′ biotin non-related sequence with stem loop like structure, SEQ ID NO: 13 (DNA ACCTAAATGCTAGAGCTCGCTGATCAGCCT; DNA, 5' {Biotin}, backbone and methylation of C not given here) | Y | Y | weakly binds |  |  | cleaved by MIF, but with less efficiency
LF: 5′ biotin ssDNA MIF substrate, SEQ ID NO: 7 (DNA AAAAAAACTCAGCCTCCCAAGTAGCTGGGA; DNA, 5' {Biotin}, backbone and methylation of C not given here) | N | N | no obvious effect on the DNA/MIF complex formation |  |  | 
PA^30: 5′ biotin-poly A, SEQ ID NO: 9 | N | Y | fails to bind |  |  | cleave
RF: 5′ biotin ssDNA MIF substrate, SEQ ID NO: 8 (DNA TCCCAAGTAGCTGGGATTACAGGAAAAAAA; DNA, 5' {Biotin}, backbone and methylation of C not given here) | Y | Y | reduces the DNA-MIF binding |  |  | 
SL: 5′ biotin ssDNA MIF substrate, SEQ ID NO: 6 (DNA CCTGTAATCCCAAGTAGCTGGGATTACAGG; DNA, 5' {Biotin}, backbone and methylation of C not given here) | N | N |  |  |  | 
m2: 5′ biotin ssDNA MIF substrate, SEQ ID NO: 79 (DNA CTCAGCCTCCAAAAAAAAAAGGATTACAGG; DNA, 5' {Biotin}, backbone and methylation of C not given here) | Y | Y |  |  |  | 
m3: 5′ biotin ssDNA MIF substrate, SEQ ID NO: 80 (DNA CTCAGCCTCCCAAGTAGCTGAAAAAAAAAA; DNA, 5' {Biotin}, backbone and methylation of C not given here) | Y | Y |  |  |  | 
m4: 5′ biotin ssDNA MIF substrate, SEQ ID NO: 81 (DNA CTCAGCCAAAAAAATAGCTGGGATTACAGG; DNA, 5' {Biotin}, backbone and methylation of C not given here) | Y | Y |  |  |  | 
m5: 5′ biotin ssDNA MIF substrate, SEQ ID NO: 82 (DNA CTCAGCCTCCCAAAAAAAAGGGATTACAGG; DNA, 5' {Biotin}, backbone and methylation of C not given here) | Y | Y |  |  |  | 
m6: 5′ biotin ssDNA MIF substrate, SEQ ID NO: 83 (DNA CTCAAAAAAACAAGTAGCTGGGATTACAGG; DNA, 5' {Biotin}, backbone and methylation of C not given here) | Y | Y |  |  |  | 
m7: 5′ biotin ssDNA MIF substrate, SEQ ID NO: 84 (DNA AAAAGCCTCCCAAGTAGCTGGGATTACAGG; DNA, 5' {Biotin}, backbone and methylation of C not given here) | Y | Y |  |  |  | 
m8: 5′ biotin ssDNA MIF substrate, SEQ ID NO: 85 (DNA CTCAAAATCCCAAAAAAAAGGGATTACAGG; DNA, 5' {Biotin}, backbone and methylation of C not given here) | Y | Y |  |  |  | 
m9: 5′ biotin ssDNA MIF substrate, SEQ ID NO: 86 (DNA CAAGTAGCTGCTCAGCCTCCGGATTACAGG; DNA, 5' {Biotin}, backbone and methylation of C not given here) | Y | Y |  |  |  | 
m10: 5′ biotin ssDNA MIF substrate, SEQ ID NO: 87 (DNA CTCAGCCTCCGGATTACAGGCAAGTAGCTG; DNA, 5' {Biotin}, backbone and methylation of C not given here) | Y | Y |  |  |  | 
m11: 5′ biotin ssDNA MIF substrate, SEQ ID NO: 88 (DNA CTCAGCCTCCCAAGTAAAAGGGATTACAGG; DNA, 5' {Biotin}, backbone and methylation of C not given here) | Y | Y |  |  |  | 
m12: 5′ biotin ssDNA MIF substrate, SEQ ID NO: 89 (DNA CTCAGCCTCCCAAGTAAATGGGATTACAGG; DNA, 5' {Biotin}, backbone and methylation of C not given here) | Y | Y |  |  |  | 
m14: 5′ biotin ssDNA MIF substrate, SEQ ID NO: 90 (DNA CTCAGCCTCCCAAGTAAACGGGATTACAGG; DNA, 5' {Biotin}, backbone and methylation of C not given here) | Y | Y |  |  |  | 
m15: 5′ biotin ssDNA MIF substrate, SEQ ID NO: 91 (DNA CTCAGCCTCCCAAGTAGCAGGGATTACAGG; DNA, 5' {Biotin}, backbone and methylation of C not given here) | Y | Y |  |  |  | 
m16: 5′ biotin ssDNA MIF substrate, SEQ ID NO: 92 (DNA CTCAGCCTCCCTTGTAGCTGGGATTACAGG; DNA, 5' {Biotin}, backbone and methylation of C not given here) | Y | Y |  |  |  | 
m17: 5′ biotin ssDNA MIF substrate, SEQ ID NO: 93 (DNA CTCAAAATCCCAAGTAGCTGGGATTACAGG; DNA, 5' {Biotin}, backbone and methylation of C not given here) | Y | Y |  |  |  | 
m18: 5′ biotin ssDNA MIF substrate, SEQ ID NO: 94 (DNA CTCAATTTCCCAAGTAGCTGGGATTACAGG; DNA, 5' {Biotin}, backbone and methylation of C not given here) | Y | Y |  |  |  | 
m20: 5′ biotin ssDNA MIF substrate, SEQ ID NO: 95 (DNA AAAAATCTCAGCCTCCCAAGTAGCTGGGAT; DNA, 5' {Biotin}, backbone and methylation of C not given here) | Y | Y |  |  |  | 
